Measured values as given in the supplement of paper PMC10307832.

Legend:
Assay in all cases: relative viability (nuclei count vs DMSO), 5 days (fraction); higher = more cells survive
[1] = compound: CC1=C(C(=NN1)C)CC2=C(C3=C(S2)N(C(=O)N(C3=O)C)CC(C)C)C(=O)N4C[C@@H](CO4)O + O=C(c1cc(Cc2n[nH]c(=O)c3ccccc23)ccc1F)N1CCN(C(=O)C2CC2)CC1 [Olaparib] (partner 8 µM)
In short: (§1)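 Cells from lung cancer lines were seeded into 1536-well plates and, one day later, dosed by pin tool. Treatments were either a single drug or a fixed dose of an anchor drug with five library-drug doses (not always all listed) in √10 steps. After 5 days, nuclei were stained in a one-step fixation (final 0.05% Triton X-100, 1% formaldehyde, 1 ug/ml Hoechst) and counted on 4× images, and relative viability is the treated-to-vehicle nuclei ratio, as the median of duplicate plates.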

[2] = compound: Cc1ccccc1C(C(=O)NC1CCCCC1)N(C(=O)Cn1ccnc1C)c1cccc(F)c1 [IDH-C35] + O=C(CCCCCCC(=O)Nc1ccccc1)NO [Vorinostat] (partner 1 µM)
In short: as §1

[3] = compound: CC1=C(C(=NN1)C)CC2=C(C3=C(S2)N(C(=O)N(C3=O)C)CC(C)C)C(=O)N4C[C@@H](CO4)O + Nc1nc2[nH]cc(CCc3ccc(C(=O)N[C@@H](CCC(=O)O)C(=O)O)cc3)c2c(=O)[nH]1 [Pemetrexed] (partner 0.2 µM)
In short: as §1

[4] = compound: Cc1ccccc1C(C(=O)NC1CCCCC1)N(C(=O)Cn1ccnc1C)c1cccc(F)c1 [IDH-C35] + CS(=O)(=O)N1CCN(Cc2cc3nc(-c4cccc5[nH]ncc45)nc(N4CCOCC4)c3s2)CC1 [Pictilisib] (partner 1 µM)
In short: as §1

Cell Line | relative viability ([1]; first compound 0.0025 µM) | relative viability ([1]; first compound 0.007906 µM) | relative viability ([1]; first compound 0.025 µM) | relative viability ([1]; first compound 0.07906 µM) | relative viability ([1]; first compound 0.25 µM) | relative viability ([2]; first compound 0.08 µM) | relative viability ([2]; first compound 0.253 µM) | relative viability ([2]; first compound 0.8 µM) | relative viability ([2]; first compound 2.53 µM) | relative viability ([2]; first compound 8 µM) | relative viability ([3]; first compound 0.0025 µM) | relative viability ([3]; first compound 0.007906 µM) | relative viability ([3]; first compound 0.025 µM) | relative viability ([3]; first compound 0.07906 µM) | relative viability ([3]; first compound 0.25 µM) | relative viability ([4]; first compound 0.08 µM) | relative viability ([4]; first compound 0.253 µM) | relative viability ([4]; first compound 0.8 µM) | relative viability ([4]; first compound 2.53 µM) | relative viability ([4]; first compound 8 µM)
LK-2 | 0.743 | 0.608 | 0.504 | 0.556 | 0.6 | 0.352 | 0.273 | 0.216 | 0.34 | 0.165 | 0.307 | 0.347 | 0.245 | 0.3 | 0.257 | 0.584 | 0.501 | 0.456 | 0.496 | 0.565
LOU-NH91 | 0.912 | 0.877 | 0.925 | 0.956 | 0.926 | 0.916 | 0.946 | 0.894 | 0.8 | 0.888 | 0.404 | 0.362 | 0.402 | 0.366 | 0.365 | 0.528 | 0.548 | 0.516 | 0.496 | 0.531
NCI-H522 | 0.793 | 0.646 | 0.53 | 0.4 | 0.348 | 0.953 | 1.12 | 0.896 | 0.872 | 0.883 | 1.14 | 1.37 | 0.98 | 0.54 | 0.643 |  |  |  |  | 
NCI-H727 | 0.813 | 0.762 | 0.747 | 0.782 | 0.568 | 1.2 | 1.08 | 1.02 | 1.17 | 1.16 |  |  |  |  |  | 0.528 | 0.522 | 0.54 | 0.441 | 0.43
NCI-H1299 | 0.986 | 0.991 | 0.975 | 1.01 | 0.988 |  |  |  |  |  |  |  |  |  |  | 0.818 | 0.671 | 0.96 | 0.759 | 0.745
NCI-H1563 |  |  |  |  |  |  |  |  |  |  | 0.796 | 0.795 | 0.686 | 0.742 | 0.857 | 0.646 | 0.682 | 0.662 | 0.619 | 0.619
NCI-H1648 | 0.878 | 0.724 | 0.63 | 0.782 | 0.887 |  | 0.415 | 0.523 | 0.443 | 0.525 | 0.69 | 0.783 | 0.61 | 0.502 | 0.673 |  |  |  |  | 
NCI-H1703 | 0.467 | 0.348 | 0.422 | 0.41 | 0.447 |  |  |  |  |  |  |  |  |  |  | 0.235 | 0.264 | 0.285 | 0.262 | 0.206
NCI-H1792 | 0.542 | 0.384 | 0.356 | 0.383 | 0.246 |  |  |  |  |  | 0.932 | 0.6 | 0.768 | 0.644 | 0.719 | 0.231 | 0.3 | 0.251 | 0.345 | 0.277
NCI-H2342 | 0.463 | 0.473 | 0.374 | 0.425 | 0.403 | 0.817 | 0.712 | 0.793 | 0.715 | 0.806 | 0.748 | 0.859 | 0.719 | 0.72 | 0.65 |  |  |  |  | 
SW 900 | 0.805 | 1.09 | 0.846 | 1 | 0.893 | 0.496 | 0.44 |  | 0.505 | 0.529 | 0.489 | 0.456 | 0.489 | 0.529 | 0.434 |  |  |  |  | 
